This passage reports TGI and GI50 results from PubChem BioAssay (NCI).

Common to all, as to assay: NCI-60 cell line screen, 48 h
Assay [1] concerns A498 renal.
Assay [2] has as its system CCRF-CEM leukemia.
Assay [3] relates to COLO 205 colon.
In assay [4] the test system is HCT-15 colon.
Assay [5] relates to KM12 colon.
Assay [6] has as its system MDA-MB-435.
Assay [7] concerns MOLT-4 leukemia.
The subject of assay [8] is NCI/ADR-RES ovarian.
Assay [9] has as its system OVCAR-4 ovarian.
The subject of assay [10] is SF-268 CNS.
The test system of assay [11] is SK-OV-3 ovarian.
For assay [12], the system named is T-47D breast.
Assay [13] relates to UO-31 renal.

Values joined by “and” are separate entries in the source; they are usually repeats but may differ in a detail not shown here. Equal entries are not always repeated.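 Values below derive from 48-hour exposures of cells grown in 96-well plates, with endpoints linearly interpolated between the two concentrations bracketing the appropriate inhibition level. Here, GI50 denotes the concentration required for 50% inhibition of growth. TGI: concentration producing complete growth inhibition.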 Where only a bound is given, the exact number is not on record here.

`CC(=O)O[C@H]1C#C/C=C\C#CC[C@@H]2C(=O)N[C@@H]12`: the TGI is 98.9 µM in [1]; more than 100 µM in [2]; more than 100 µM in assay [3]; more than 82 µM in assay [4]; more than 100 µM in assay [5]; more than 100 µM in assay [6]. Further, the TGI in [7] was more than 100 µM; in assay [8] it was more than 75.9 µM; in assay [9] it was more than 100 µM; in assay [10], more than 70.2 µM; in [11] it was more than 100 µM; in assay [12] it was more than 100 µM. In [13], this molecule registered a TGI of more than 62.8 µM.
As for `O=c1c2ncn(COCCCl)c2n(-c2ccccc2)c(=S)n1-c1ccccc1`, the TGI in [1], in [2], in [3], in assay [4], in assay [5] and in [6] was more than 100 µM each time. In addition, the TGI in assay [7], in assay [8], in [9], in assay [10], in assay [11] and in assay [12] was more than 100 µM in each case. In assay [13], this molecule yielded a TGI of more than 100 µM.
On to `Cc1ccc(/C(O)=C/C(=O)C(=O)/C=C(\O)c2ccc(C)cc2C)c(C)c1`, for which the TGI came out at 4.7 µM in [1]; 3.17 µM in [2]; 3.66 µM in [3]; 4.47 µM in assay [4]; 3.44 µM in [5]; 3.99 µM in [6]. In addition, the TGI in assay [7] came to 4.67 µM; in assay [8], 4.12 µM; in [9], 9.04 µM; in [10] it was 4.02 µM; in assay [11] it was 3.47 µM; in assay [12], 4.46 µM. In [13], the TGI came out at 3.65 µM.
Consider `CCn1nc2c3c(ncn3C(C)(C)O2)c1=O`, for which the TGI in assay [1], in assay [2], in assay [3], in assay [4], in [5] and in [6] was more than 100 µM each time. Besides, the TGI in assay [7], in assay [8], in assay [9], in [10], in assay [11] and in assay [12] was more than 100 µM throughout. The same molecule came in with a TGI in assay [13] of more than 100 µM.
As for `COc1cc(CNc2ccc(SC)cc2)cc(OC)c1OC`, the TGI is 79.4 µM and 67.7 µM in assay [1]; more than 90.6 µM in assay [2]; 12.8 µM and 12.4 µM in assay [3]; 57.5 µM and 78.2 µM in [4]; > 62.7 µM and 20.7 µM in assay [5]; 80 µM in [6]. In addition, the TGI is more than 100 µM in assay [7]; 23.9 µM and > 22.6 µM in assay [8]; more than 100 µM in [9]; > 100 µM and 69.3 µM in assay [10]; 64.2 µM and 44.6 µM in assay [11]; > 100 µM and 69.8 µM in assay [12]. The TGI in [13] was 83.1 µM and 51.1 µM. The GI50 in [5] was 4.44 µM and 2.21 µM; in [6] it was 1.67 µM and 0.638 µM; in [10] it was 19.9 µM and 7.47 µM; in assay [11] it was 15.4 µM and 5.05 µM; in [12], 24.7 µM and 7.05 µM.
Turning to `CN(O)C(=O)c1cccc(Cl)c1`, the TGI in [1], in assay [2], in [3], in [4], in assay [5] and in assay [6] was more than 100 µM throughout. For the same molecule, the TGI in assay [7], in assay [8], in assay [9], in assay [10], in assay [11] and in assay [12] was more than 100 µM each time. In [13], this molecule gave a TGI of more than 100 µM.
Regarding `C1CCC2C(C1)CCCC2NC1=NCCO1` (configuration not stated), the TGI in assay [1], in assay [2], in assay [3], in [4], in [5] and in assay [6] was more than 100 µM in each case. The TGI in assay [7], in assay [8], in [9], in [10], in assay [11] and in [12] was more than 100 µM in each case. This molecule also gave a TGI in assay [13] of more than 100 µM.
`COc1ccc(/C=N/N=C(\N)NO)c(O)c1`: the TGI in assay [1] was more than 10 µM; in assay [2], more than 10 µM; in [3], more than 10 µM; in assay [4], more than 10 µM; in assay [5] it was more than 10 µM; in assay [6] it was 4.49 µM. Also, the TGI in assay [7], in assay [8], in [9], in assay [10], in assay [11] and in [12] was more than 10 µM each time. In assay [13], this molecule registered a TGI of more than 10 µM.
On to `O=c1oc2ccccc2c(Nc2ccc3c(c2)Oc2ccccc2O3)c1[N+](=O)[O-]`, for which the TGI in [1] was 59 µM; in assay [2], more than 100 µM; in assay [3] it was more than 100 µM; in [4], more than 100 µM; in assay [5] it was more than 100 µM; in assay [6] it was more than 100 µM. Besides, the TGI in [7] was more than 100 µM; in [8], 69.4 µM; in [9], 67 µM; in assay [10], 48.4 µM; in assay [11], 40.9 µM; in assay [12] it was 79.1 µM. The TGI in assay [13] was more than 100 µM.
Turning to `CC(=O)N1N=C(c2ccc3ccccc3c2O)CC1C(=O)c1ccco1` (configuration not stated), the TGI in [1] is more than 100 µM; in assay [2], 24.9 µM; in assay [3], 67.6 µM; in assay [4], more than 100 µM; in [5], 44.8 µM; in assay [6], more than 100 µM. Besides, the TGI in assay [7] was 24.4 µM; in assay [8] it was 57.8 µM; in assay [9] it was more than 100 µM; in [10], more than 100 µM; in assay [11], more than 100 µM; in assay [12], more than 100 µM. In assay [13], the TGI is more than 100 µM.
For the molecule `CC(=O)O[C@H]1CC[C@@]2(C)C(=CC[C@H]3[C@@H]4C[C@H](N5CCCC5)[C@H](OC(C)=O)[C@@]4(C)CC[C@@H]32)C1`, the TGI was more than 100 µM in [1]; more than 100 µM in assay [2]; more than 100 µM in assay [3]; more than 100 µM in [4]; more than 100 µM in assay [5]; 82.4 µM in assay [6]. The TGI in assay [7], in [8], in assay [9], in assay [10], in assay [11] and in [12] was more than 100 µM each time. In [13], the TGI was more than 100 µM.
Consider `CC1=NN2C(=N)/C(=C/c3ccco3)C(=O)N=C2S1`, for which the TGI in assay [1], in [2], in assay [3], in assay [4], in assay [5] and in assay [6] was more than 100 µM in each case. For the same molecule, the TGI in assay [7], in [8], in assay [9], in assay [10], in assay [11] and in [12] was more than 100 µM in each case. Further, the TGI in assay [13] is more than 100 µM.
For the molecule `Cc1ccc2c(=O)cc(-c3cccs3)[nH]c2n1`, the TGI in assay [1] was more than 100 µM; in assay [2], more than 87.6 µM; in [3] it was 25.2 µM; in [4] it was more than 100 µM; in assay [5] it was more than 100 µM; in assay [6], 5.65 µM. Further, the TGI in assay [7] is more than 100 µM; in assay [8], 11.9 µM; in assay [9] it was more than 100 µM; in [10] it was more than 100 µM; in [11], more than 100 µM; in assay [12], more than 67.7 µM. The same molecule registered a TGI in [13] of 35.6 µM.
For the molecule `CC1Cn2c(nc3ccccc32)NC1=O` (configuration not stated), the TGI in [1], in assay [2], in assay [3], in assay [4], in [5] and in [6] was more than 100 µM throughout. Moreover, the TGI in [7], in assay [8], in assay [9], in assay [10], in [11] and in [12] was more than 100 µM each time. The same molecule registered a TGI in [13] of more than 100 µM.
Consider `CCC1(C)N=C(c2cnccn2)NN1c1ccc(Cl)cc1` (configuration not stated), for which the TGI is more than 100 µM in [1]; 59.9 µM in [2]; more than 100 µM in assay [3]; more than 100 µM in assay [4]; more than 100 µM in assay [5]; more than 100 µM in assay [6]. Also, the TGI is more than 100 µM in assay [7]; more than 100 µM in assay [8]; more than 100 µM in assay [9]; more than 100 µM in assay [10]; more than 100 µM in [11]; 74.5 µM in assay [12]. Also, the TGI in assay [13] is more than 100 µM.
Turning to `O=C1NC(N/N=C/C(O)C(O)C(O)CO)=N/C1=C\c1ccco1` (configuration not stated), the TGI in [1], in assay [2], in assay [3], in assay [4], in assay [5] and in [6] was more than 100 µM each time. Besides, the TGI in [7], in assay [8], in [9], in assay [10], in assay [11] and in assay [12] was more than 100 µM each time.
